Experimental data as given in ChEMBL document CHEMBL1201862, “PubChem BioAssay data set” (2004).
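Exposure lasted 48 hours, with cells grown in 96-well plates and compounds tested at five concentrations. GI50: concentration for 50% inhibition of growth.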 The source made the active and inactive calls. Cut-off read from the data, not from the text of the source: active = GI50 up to about 1.1 µM and inactive = higher.

Legend:
Experiment in all cases: DTP human tumour cell line panel, 48 h
IGROV-1 = test system: IGROV-1
SF-295 = test system: SF-295
T47D = test system: T47D
ACHN = test system: ACHN
UO-31 = test system: UO-31
DU-145 = test system: DU-145
A498 = test system: A498
MDA-N = test system: MDA-N
HCC 2998 = test system: HCC 2998
COLO 205 = test system: COLO 205
NCI/ADR-RES = test system: NCI/ADR-RES
SK-MEL-28 = test system: SK-MEL-28
KM12 = test system: KM12
TK-10 = test system: TK-10
EKVX = test system: EKVX
SW-620 = test system: SW-620
786-0 = test system: 786-0
OVCAR-4 = test system: OVCAR-4
OVCAR-3 = test system: OVCAR-3

Measured: GI50

Nc1nc2c(c(=O)[nH]1)N=C(COP(=O)(O)OP(=O)(O)O)CN2
inactive: IGROV-1 > 100 µM | SF-295 > 100 µM | T47D > 100 µM | ACHN > 100 µM | UO-31 > 100 µM | DU-145 > 100 µM | A498 > 100 µM | MDA-N > 100 µM | HCC 2998 > 100 µM | COLO 205 > 100 µM | NCI/ADR-RES > 100 µM | SK-MEL-28 > 100 µM | KM12 > 100 µM | TK-10 > 100 µM | EKVX > 100 µM | SW-620 > 100 µM | 786-0 > 100 µM

CN(C)Cc1cc(C(F)(F)F)ccc1C(O)(c1ccccc1)c1ccccc1
inactive: OVCAR-4 16.4 µM | IGROV-1 15.9 µM | SF-295 17.9 µM | T47D 18.2 µM | ACHN 16.3 µM | UO-31 12.1 µM | OVCAR-3 27.8 µM | DU-145 26.7 µM | A498 11.7 µM | MDA-N 14.4 µM | COLO 205 8.05 µM | NCI/ADR-RES 15.2 µM | SK-MEL-28 14.9 µM | KM12 16.9 µM | TK-10 17.2 µM | EKVX 15.4 µM | SW-620 17.3 µM | 786-0 14.2 µM

Cc1nc(SCC(=O)Nc2ccc(Cl)cc2)c2sc(=S)n(-c3ccccc3)c2n1
inactive: OVCAR-4 > 10 µM | IGROV-1 > 10 µM | SF-295 > 10 µM | T47D > 10 µM | ACHN > 10 µM | OVCAR-3 > 10 µM | DU-145 > 10 µM | A498 > 10 µM | MDA-N > 10 µM | HCC 2998 > 10 µM | COLO 205 > 10 µM | NCI/ADR-RES > 10 µM | SK-MEL-28 > 10 µM | KM12 > 10 µM | TK-10 > 10 µM | EKVX > 10 µM | SW-620 > 10 µM | 786-0 > 10 µM

CC1C(=O)N=C2C(=CN(Cc3ccccc3)c3ccccc32)C(=O)N1C (centres undefined)
inactive: OVCAR-4 > 100 µM | IGROV-1 > 100 µM | T47D > 100 µM | ACHN > 100 µM | UO-31 > 100 µM | OVCAR-3 > 100 µM | DU-145 > 100 µM | A498 > 100 µM | MDA-N > 100 µM | HCC 2998 > 100 µM | COLO 205 > 100 µM | NCI/ADR-RES > 100 µM | SK-MEL-28 > 100 µM | KM12 > 100 µM | TK-10 > 100 µM | SW-620 > 100 µM | 786-0 > 100 µM

NNC(=O)CC(=O)Nc1ccccc1Cl
inactive: OVCAR-4 > 100 µM | IGROV-1 > 100 µM | SF-295 > 100 µM | T47D > 100 µM | ACHN > 100 µM | UO-31 > 100 µM | OVCAR-3 > 100 µM | DU-145 > 100 µM | A498 > 100 µM | MDA-N > 100 µM | COLO 205 > 100 µM | NCI/ADR-RES > 100 µM | SK-MEL-28 > 100 µM | KM12 > 100 µM | TK-10 > 100 µM | EKVX > 100 µM | SW-620 > 100 µM | 786-0 > 100 µM

O=C1CSC(c2cccc(Cl)c2)N1c1c(O)c(Cl)cc(Br)c1Cl (centres undefined)
inactive: OVCAR-4 14.9 µM | SF-295 > 100 µM | T47D 17.1 µM | ACHN 14.8 µM | UO-31 15.6 µM | OVCAR-3 16.9 µM | DU-145 > 100 µM | A498 > 100 µM | MDA-N 17.1 µM | COLO 205 23.5 µM | NCI/ADR-RES 71 µM | SK-MEL-28 > 100 µM | KM12 34 µM | TK-10 83.4 µM | EKVX > 100 µM | SW-620 17.2 µM | 786-0 25.5 µM

COC(=O)C(CCCCN)NC(=O)C(CCCCN)NC(=O)C(CCCCN)NC(C)=O.Cc1ccc(C(=O)Nc2ccc(S(=O)(=O)O)c3cc(S(=O)(=O)O)cc(S(=O)(=O)O)c23)cc1NC(=O)c1cccc(NC(=O)Nc2cccc(C(=O)Nc3cc(C(=O)Nc4ccc(S(=O)(=O)O)c5cc(S(=O)(=O)O)cc(S(=O)(=O)O)c45)ccc3C)c2)c1
inactive: OVCAR-4 11.3 µM | SF-295 > 50 µM | T47D > 50 µM | ACHN > 50 µM | UO-31 > 50 µM | OVCAR-3 > 50 µM | DU-145 > 50 µM | A498 > 50 µM | MDA-N > 50 µM | HCC 2998 > 50 µM | COLO 205 > 50 µM | NCI/ADR-RES > 50 µM | SK-MEL-28 > 50 µM | KM12 > 50 µM | SW-620 > 50 µM | 786-0 > 50 µM

CC1(C2(C)OC(=O)c3ccccc32)OC(=O)c2ccccc21 (centres undefined)
inactive: OVCAR-4 > 100 µM | IGROV-1 > 100 µM | SF-295 > 100 µM | T47D > 100 µM | ACHN > 100 µM | UO-31 > 100 µM | OVCAR-3 > 100 µM | DU-145 > 100 µM | A498 > 100 µM | MDA-N > 100 µM | HCC 2998 > 100 µM | COLO 205 > 100 µM | NCI/ADR-RES > 100 µM | SK-MEL-28 > 100 µM | KM12 > 100 µM | TK-10 > 100 µM | SW-620 > 100 µM | 786-0 > 100 µM
